We go through two compounds from patent US7544814B2, “[3.2.0] Heterocyclic compounds and methods of using the same” (Nereus Pharmaceuticals, Inc., priority 2004, dated 2009).

“And” between values parts separate entries of the source, which are not always exact repeats. Identical values can stand only once. Like-named read-outs stand apart in the source and are kept apart here.

Data set [1] has as its target T1, chymotrypsin-like activity of 20S proteasomes in RPMI 8226 cells (Homo sapiens, UniProt P28074).
T1 construct: added to 2.5×10^5/ml RMPI 8226 cells; endogenous in cells; host or cells: RPMI 8226 (ATCC CCL-155)
T1 sequence (P28074 60-263): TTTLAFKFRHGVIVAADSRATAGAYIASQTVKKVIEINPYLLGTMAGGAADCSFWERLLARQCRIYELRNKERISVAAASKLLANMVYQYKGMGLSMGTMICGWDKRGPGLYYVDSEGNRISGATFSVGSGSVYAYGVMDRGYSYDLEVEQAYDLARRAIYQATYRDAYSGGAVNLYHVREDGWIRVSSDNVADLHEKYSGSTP
The experiment in a line: Chymotrypsin-like activity of 20S proteasomes in lysates of treated RPMI 8226 cells. The class given is cell-based. The settings on record: RPMI-8226, read-out: % inhibition of the chymotrypsin-like activity of 20S proteasomes in RPMI 8226 cell lysates. The protocol:
RPMI 8226 (ATCC, CCL-155), the human multiple myeloma cell line, was cultured in RPMI 1640 medium supplemented with 2 mM L-glutamine, 100 units/ml penicillin, 100 μg/ml streptomycin, 1 mM sodium pyruvate and 10% heat inactivated fetal bovine serum at 37° C., 5% CO2 and 95% humidified air. […] DMSO was used as the vehicle control at a final concentration of 0.1%. Following 1 hr incubation of RMPI 8226 cells with the compounds, the cells were pelleted by centrifugation at 2,000 rpm for 10 sec at room temperature and washed 3× with ice-cold 1× Dulbecco's Phosphate-Buffered Saline (DPBS, Mediatech, Herndon, Va.). DPBS washed cells were lysed on ice for 15 min in lysis buffer (20 mM HEPES, 0.5 mM EDTA, 0.05% Triton X-100, pH 7.3) supplemented with protease inhibitor cocktail (Roche Diagnostics, Indianapolis, Ind.). Cell debris was pelleted by centrifugation at 14,000 rpm for 10 min, 4° C. and supernatants (=cell lysates) were transferred to a new tube. Protein concentration was determined by the BCA protein assay kit (Pierce Biotechnology, Rockford, Ill.). […] The released coumarin (AMC) was measured fluorometrically by using λex=390 nm and λem=460 nm. The assay was performed in a microtiter plate (Corning 3904) and followed kinetically with measurements every five minutes for 2 hr. The total amount of protein used for each assay was 20 μg. The final concentration of Suc-LLVY-AMC and DMSO was 20 μM and 0.2%, respectively.

Data set [2] addresses T2, trypsin-like activity of purified rabbit muscle 20S proteasome (Oryctolagus cuniculus, UniProt G1SWK8).
T2 sequence (G1SWK8 1-271): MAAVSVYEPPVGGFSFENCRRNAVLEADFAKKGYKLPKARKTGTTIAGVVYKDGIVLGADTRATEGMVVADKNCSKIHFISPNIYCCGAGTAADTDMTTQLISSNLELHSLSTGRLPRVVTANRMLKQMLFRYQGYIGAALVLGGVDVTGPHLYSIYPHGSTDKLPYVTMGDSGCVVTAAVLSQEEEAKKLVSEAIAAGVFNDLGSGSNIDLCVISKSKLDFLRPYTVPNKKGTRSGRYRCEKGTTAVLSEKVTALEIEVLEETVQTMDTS
Nature of the data set: biochemical.

In data set [3] the test system is PC-3. The experiment in a line: Cell growth inhibition (resazurin), PC-3. Type of data set: cell-based, human. The settings on record: from EC50 values. A general note: Resazurin is reduced to fluorescent resorufin, in cell work by metabolically active cells.
Data set [4] relates to MDA-MB-231. Nature of the data set: Cell growth inhibition (resazurin), MDA-MB-231. The settings on record: from EC50 values.
For data set [5], the system named is HT-29. The experiment in a line: Cell growth inhibition (resazurin), HT-29. The settings on record: from EC50 values.
In data set [6] the test system is RPMI 8226. The experiment in a line: cells. The procedure:
RPMI 8226 (CCL-155), HT-29 (HTB-38), and B16-F10 (CRL-6475) cells were purchased from ATCC. RPMI 8226 cells were maintained in RPMI 1640 media supplemented with 10% (v/v) FBS, 2 mM L-glutamine, 1 mM sodium pyruvate and Penicillin/Streptomycin at 100 IU/ml and 100 μg/ml, respectively. HT-29 cells were maintained in McCoys 5A supplemented with 10% (v/v) FBS, 2 mM L-glutamine, 1 mM sodium pyruvate, 1% (v/v) non-essential amino acids, 10 mM HEPES and Penicillin/Streptomycin at 100 IU/ml and 100 μg/ml, respectively. B16-F10 cells were maintained in DMEM supplemented with 10% (v/v) FBS, 2 mM L-glutamine, 10 mM HEPES and Penicillin/Streptomycin at 100 IU/ml and 100 μg/ml, respectively.
RPMI 8226 cells were seeded at 2×10^4 cells/well in 90 μl RPMI media containing 10% (v/v) FBS or 1% (v/v) FBS into 96 well black-walled, clear-bottom tissue culture plates. […] Formulae II-16, II-17 and Formula II-18 were serially diluted in media containing 1% or 10% FBS and added in triplicate to the test wells. […] The final concentration of Formula II-18 ranged from 2 μM to 630 pM.

In data set [7] the test system is MES-SA/Dx5. The experiment in a line: Cell growth inhibition (resazurin), multidrug resistant MES-SA/Dx5. The settings on record: from EC50 values. The class given is cell-based, human.
Data set [8] concerns MES-SA. The experiment in a line: Cell growth inhibition (resazurin), MES-SA. Type of data set: cell-based, human. The settings on record: from EC50 values.
In data set [9] the test system is B16-F10. The experiment in a line: Cell growth inhibition (resazurin), B16-F10. The settings on record: from EC50 values.
Data set [10] concerns NCI-H292. The experiment in a line: Cell growth inhibition (resazurin), NCI-H292. The settings on record: from EC50 values.

In the case of `C[C@H]1C(=O)N[C@@]2(C(O)[C@@H]3C=CCCC3)C(=O)O[C@@]12C` (single isomer, unassigned) [Formula II-20], in data set [1], the inhibition at 0.001 µM is 3 ± 10%, the inhibition at 0.005 µM came out at 31 ± 9%, the inhibition at 0.01 µM came to 37 ± 3% and the inhibition at 0.05 µM stood at 64 ± 3%. In addition, in [1], the inhibition at 0.1 µM is 66 ± 3%, the inhibition at 0.5 µM was found to be 71 ± 2%, the inhibition at 1 µM stood at 73 ± 2% and the inhibition at 10 µM came out at 87 ± 4%. For the same compound, the EC50 in data set [2] was 318 nM and 321 nM.
For the compound `C[C@@]12OC(=O)[C@]1([C@@H](O)[C@@H]1C=CCCC1)NC(=O)[C@@H]2CCBr` [Formula II-18], the “cytotoxicity against PC-3, in words” value in [3] is on record as “cytotoxic”. Further, in data set [4], the “cytotoxicity against MDA-MB-231, in words” value was “cytotoxic”. In addition, the “cytotoxicity against HT-29, in words” value in data set [5] is “cytotoxic”. Moreover, the “cytotoxicity against RPMI 8226 in media containing 1% or 10% FBS, in words” value in data set [6] (1% or 10% FBS) was “cytotoxic”. Further, the EC50 in [6] (Homo sapiens, RPMI-8226, read-out: 1% FBS, EC50, RPMI 8226, media containing 1% FBS, single experiments) amounted to 15 nM; in data set [6] (Homo sapiens, RPMI-8226, read-out: 10% FBS, EC50, RPMI 8226, media containing 10% FBS, single experiments) it was 20 nM; in data set [6] (Homo sapiens, RPMI-8226, read-out: Mean 1% FBS, EC50, RPMI 8226, media containing 1% FBS, mean), 14 nM; in data set [6] (Homo sapiens, RPMI-8226, read-out: Mean 10% FBS, EC50, RPMI 8226, media containing 10% FBS, mean) it was 20 nM; in [6] (read-out: 1% FBS, EC50, RPMI 8226, media containing 1% FBS, single experiments) it was 13 nM. In data set [6] (RPMI 8226), the “change in the mean EC50, 10% FBS relative to 1% FBS” value is on record as “less than three fold decrease”. The “cytotoxic activity against MES-SA/Dx5, in words” value in [7] was “cytotoxic activity”. For the same compound, the “cytotoxic activity against MES-SA, in words” value in data set [8] is listed as “cytotoxic activity”. Further, the “cytotoxicity against B16-F10, in words” value in [9] is “cytotoxic”. In data set [10], the “cytotoxicity against NCI-H292, in words” value is on record as “cytotoxic”.

Usually inhibition stands for how much of the control response was suppressed. The EC50 is the concentration at which the effect is half-maximal.
